# Test results reported in patent US20100311677A1, “Active Ingredient Combinations Having Insecticidal and Acaricidal Properties” (Bayer CropScience AG, priority 2007, published 2010).
# Columns and labels:
# Tetranychus urticae = Tetranychus urticae test (OP-resistant/spray treatment) (Example G), bean leaf disks; format: in vivo
# Protocol: Tetranychus urticae Test (OP-Resistant/Spray Treatment)
# After the desired period of time, the activity in % is determined.
# Spodoptera frugiperda = Spodoptera frugiperda larvae test (Example F), sprayed cabbage leaves; format: in vivo; conditions: alone
# Description: Spodoptera frugiperda Larvae Test
# Myzus persicae = Myzus persicae test (Example C), sprayed cabbage leaves; format: in vivo; conditions: alone; for Kill in % after 6d: 0.8 g/ha; for pest or weed control at 4 g/ha / pest or weed control at 0.16 g/ha: Myzus persicae, 144 h, read-out: Kill in % after 6d; for Kill in % after 6d / pest or weed control at 4 g/ha / pest or weed control at 0.16 g/ha: after 6 d
# Phaedon cochleariae = Phaedon cochleariae larvae test (Example E), sprayed cabbage leaves; conditions: for Kill in % after 6d / Kill in % after 2d: alone
# Nilaparvata lugens = Nilaparvata lugens test (Example D), sprayed rice plants; format: in vivo; conditions: 0.8 g/ha, alone
# Bemisia tabaci = Bemisia tabaci test (Example B), sprayed cotton leaves, larval stages; format: in vivo; conditions: 4 g/ha, alone
# Aphis gossypii = Aphis gossypii test (Example A), sprayed cotton leaves; format: in vivo; conditions: 0.16 ppm, alone
# [1] = Tetranychus urticae, foliar, 144 h, active compound alone, 4 g/ha, after 6 d, read-out: Kill in % after 6 d
# [2] = Phaedon cochleariae, in Brassica oleracea, 144 h, read-out: Kill in % after 6d
# [3] = Tetranychus urticae, foliar, 144 h, active compound alone, 20 g/ha, after 6 d, read-out: Kill in % after 6 d
compound,measurement,setting,value
spinosad [spinosad (79)],Kill in % after 6d,"Tetranychus urticae; active compound alone, 4 g/ha, after 6 d",80%
same,Kill in % after 2d,Spodoptera frugiperda; 0.8 g/ha,0%
same,Kill in % after 6d,Myzus persicae,0%
same,Kill in % after 6d,Phaedon cochleariae; 0.8 g/ha,0%
"CCOC(=O)OC1=C(c2cc(C)ccc2C)C(=O)N[C@]12CC[C@@H](OC)CC2 [spirotetramat (98), spirotetramat]",pest or weed control at 4 g/ha,Tetranychus urticae; [1],50%
same,pest or weed control at 20 g/ha,"Spodoptera frugiperda; Spodoptera frugiperda, 144 h, 20 g/ha, after 6 d, read-out: Kill in % after 6d",0%
same,pest or weed control at 20 g/ha,Phaedon cochleariae; [2],50%
"O=C(NC(=O)c1ccccc1Cl)Nc1ccc(OC(F)(F)F)cc1 [triflumuron (36), triflumuron]",pest or weed control at 20 g/ha,Tetranychus urticae; [3],0%
same,pest or weed control at 0.16 g/ha,"Spodoptera frugiperda; Spodoptera frugiperda, 144 h, 0.16 g/ha, after 6 d, read-out: Kill in % after 6d",0%
same,pest or weed control at 4 g/ha,Myzus persicae; 4 g/ha,0%
same,Kill in % after 2d,Phaedon cochleariae; 20 g/ha,17%
"COP(N)(=O)SC (stereo not shown) [methamidophos (113), methamidophos]",pest or weed control at 20 g/ha,Tetranychus urticae; [3],0%
same,Kill in % after 2d,Spodoptera frugiperda; 100 g/ha,67%
same,pest or weed control at 4 g/ha,Myzus persicae; 4 g/ha,0%
same,Kill in % after 2d,Phaedon cochleariae; 100 g/ha,0%
"Cc1cc(C(F)(C(F)(F)F)C(F)(F)F)ccc1NC(=O)c1cccc(I)c1C(=O)NC(C)(C)CS(C)(=O)=O [flubendiamide (54), flubendiamide]",Kill in % after 6d,"Tetranychus urticae; active compound alone, 20 g/ha, after 6 d",0%
same,Kill in % after 6d,"Spodoptera frugiperda; 0.8 g/ha, after 6 d",0%
same,Kill in % after 6d,Myzus persicae,0%
same,Kill in % after 6d,Phaedon cochleariae; 20 g/ha,0%
"CC(C)N1C(=O)N(c2ccccc2)CS/C1=N\C(C)(C)C [buprofezin (42), buprofezin]",Kill in % after 2d,"Tetranychus urticae; 100 g/ha, alone, after 2 d",0%
same,Kill in % after 6d,Nilaparvata lugens,10%
same,Kill in % after 10d,Bemisia tabaci,30%
same,Kill in % after 1d,"Myzus persicae; 4 g/ha, after 1 d",0%
same,pest or weed control at 100 g/ha,Phaedon cochleariae; [2],0%
"CC1(C)[C@H](/C=C(\Cl)C(F)(F)F)[C@@H]1C(=O)O[C@H](C#N)c1cccc(Oc2ccccc2)c1 [gamma-cyhalothrin (12b), gamma-cyhalothrin]",Kill in % after 2d,Spodoptera frugiperda; 0.032 g/ha,5%
same,Kill in % after 6d,Aphis gossypii,0%
"CC1(C)C(C=C(Cl)Cl)C1C(=O)OC(C#N)c1cccc(Oc2ccccc2)c1 (stereo not drawn) [alpha-cypermethrin (2), alpha-cypermethrin]",pest or weed control at 0.8 g/ha,"Tetranychus urticae; Tetranychus urticae, foliar, 144 h, active compound alone, 0.8 g/ha, after 6 d, read-out: Kill in % after 6 d",0%
same,Kill in % after 2d,Spodoptera frugiperda; 0.8 g/ha,33%
same,pest or weed control at 0.16 g/ha,Myzus persicae,0%
same,pest or weed control at 0.8 g/ha,Phaedon cochleariae; [2],0%
"CS/C(C)=N/OC(=O)N(C)SN(C)C(=O)O/N=C(\C)SC [thiodicarb (111), thiodicarb]",pest or weed control at 20 g/ha,Tetranychus urticae; [3],0%
same,pest or weed control at 4 g/ha,"Spodoptera frugiperda; Spodoptera frugiperda, 144 h, 4 g/ha, after 6 d, read-out: Kill in % after 6d",67%
same,pest or weed control at 100 g/ha,Phaedon cochleariae; [2],0%
Cc1cc(C(F)(C(F)(F)F)C(F)(F)F)ccc1NC(=O)c1cccc(Cl)c1C(=O)N[C@@H](C)CS(C)(=O)=O [compound (55)],pest or weed control at 4 g/ha,Tetranychus urticae; [1],0%
same,pest or weed control at 0.8 g/ha,"Spodoptera frugiperda; Spodoptera frugiperda, 144 h, 0.8 g/ha, after 6 d, read-out: Kill in % after 6d",50%
same,pest or weed control at 0.16 g/ha,Myzus persicae,0%
same,pest or weed control at 0.8 g/ha,Phaedon cochleariae; [2],0%
